PubChem BioAssay AID1963983 (Molecular Pharmacology Branch, DTP, NCI, 2024)

Tested on: 186277-243-T-J2-PDC multi-cell spheroid viability
Assay: Anticancer human tumor 186277-243-T-J2-PDC patient-derived colon adenocarcinoma cell line growth inhibition [PI3K]
Conditions: for IC50: curve of first compound; for viability, T/C: stronger effect = lower value; active means viability on the fitted dose curve at most 10% of control; inactive means the rest
How it was run: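 We assembled tumor spheroids that included a stromal compartment of HUVEC and MSCs, then exposed them to targeted agents alone and together with PI3K pathway inhibitors. Concentration series descended by half-log from clinically achievable Cmax levels. Viability served as the endpoint.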

[1] = second compound 0.0316 µM, first compound 0.0316 µM
[2] = second compound 0.0316 µM, first compound 0.1 µM
[3] = second compound 0.0316 µM, first compound 0.316 µM
[4] = second compound 0.0316 µM, first compound 1 µM
[5] = second compound 0.0316 µM, first compound 3.16 µM
[6] = second compound 0.0316 µM, first compound 10 µM
[7] = second compound 0.1 µM, first compound 0.0316 µM
[8] = second compound 0.1 µM, first compound 0.1 µM
[9] = second compound 0.1 µM, first compound 0.316 µM
[10] = second compound 0.1 µM, first compound 1 µM
[11] = second compound 0.1 µM, first compound 3.16 µM
[12] = second compound 0.1 µM, first compound 10 µM
[13] = second compound 0.316 µM, first compound 0.0316 µM
[14] = second compound 0.316 µM, first compound 0.1 µM
[15] = second compound 0.316 µM, first compound 0.316 µM
[16] = second compound 0.316 µM, first compound 1 µM
[17] = second compound 0.316 µM, first compound 3.16 µM
[18] = second compound 0.316 µM, first compound 10 µM
[19] = second compound 1 µM, first compound 0.0316 µM
[20] = second compound 1 µM, first compound 0.1 µM
[21] = second compound 1 µM, first compound 0.316 µM
[22] = second compound 1 µM, first compound 1 µM
[23] = second compound 1 µM, first compound 3.16 µM
[24] = second compound 1 µM, first compound 10 µM
[25] = second compound 3.16 µM, first compound 0.0316 µM
[26] = second compound 3.16 µM, first compound 0.1 µM
[27] = second compound 3.16 µM, first compound 0.316 µM
[28] = second compound 3.16 µM, first compound 1 µM
[29] = second compound 3.16 µM, first compound 3.16 µM
[30] = second compound 3.16 µM, first compound 10 µM
[31] = second compound 10 µM, first compound 0.0316 µM
[32] = second compound 10 µM, first compound 0.1 µM
[33] = second compound 10 µM, first compound 0.316 µM
[34] = second compound 10 µM, first compound 1 µM
[35] = second compound 10 µM, first compound 3.16 µM
[36] = second compound 10 µM, first compound 10 µM
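Further: spheroids exposed to compounds for seven days before viability reading.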
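Wherever viability, T/C is given: 100% = DMSO vehicle control viability.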

C[C@@H](NC(=O)c1ncnc(N)c1Cl)c1ncc(C(=O)Nc2cc(C(F)(F)F)c(Cl)cn2)s1 + CC(Nc1ccc2c(c1)OCCn1cc(N3C(=O)OCC3C(F)F)nc1-2)C(N)=O
5.93 µM: IC50 (second compound 0.1 µM)
inactive: viability, T/C (second compound 0.00316 µM, first compound 0.0316 µM) 83.2% | viability, T/C (second compound 0.00316 µM, first compound 0.1 µM) 87.1% | viability, T/C (second compound 0.00316 µM, first compound 0.316 µM) 93% | viability, T/C (second compound 0.00316 µM, first compound 1 µM) 99.1% | viability, T/C (second compound 0.00316 µM, first compound 3.16 µM) 113% | viability, T/C (second compound 0.00316 µM, first compound 10 µM) 75.8% | viability, T/C (second compound 0.01 µM, first compound 0.0316 µM) 103% | viability, T/C (second compound 0.01 µM, first compound 0.1 µM) 101% | viability, T/C (second compound 0.01 µM, first compound 0.316 µM) 96.2% | viability, T/C (second compound 0.01 µM, first compound 1 µM) 102% | viability, T/C (second compound 0.01 µM, first compound 3.16 µM) 108% | viability, T/C (second compound 0.01 µM, first compound 10 µM) 72.4% | viability, T/C [1] 98.6% | viability, T/C [2] 107% | viability, T/C [3] 101% | viability, T/C [4] 104% | viability, T/C [5] 93.7% | viability, T/C [6] 56.1% | viability, T/C [7] 97.4% | viability, T/C [8] 105% | viability, T/C [9] 96.4% | viability, T/C [10] 108% | viability, T/C [11] 72.8% | viability, T/C [12] 31.1% | viability, T/C [13] 85.9% | viability, T/C [14] 92.4% | viability, T/C [15] 87.3% | viability, T/C [16] 67.5% | viability, T/C [17] 34.4% | viability, T/C [18] 12.8% | viability, T/C [19] 56.2% | viability, T/C [20] 54.4% | viability, T/C [21] 51.4% | viability, T/C [22] 35.8% | viability, T/C [23] 13.7%
1.85 µM: IC50 (second compound 0.316 µM)
active: viability, T/C [24] 4.09%
> 10 µM: IC50 (second compound 0.00316 µM) | IC50 (second compound 0.01 µM) | IC50 (second compound 0.0316 µM)
0.344 µM: IC50 (second compound 1 µM)

C[C@@H](NC(=O)c1ncnc(N)c1Cl)c1ncc(C(=O)Nc2cc(C(F)(F)F)c(Cl)cn2)s1 + Cc1nc(NC(=O)N2CCCC2C(N)=O)sc1-c1ccnc(C(C)(C)C(F)(F)F)c1
< 0.0316 µM: IC50 (second compound 10 µM)
4.32 µM: IC50 (second compound 1 µM)
8.1 µM: IC50 (second compound 0.316 µM)
inactive: viability, T/C [1] 87.8% | viability, T/C [2] 78.3% | viability, T/C [3] 101% | viability, T/C [4] 99.5% | viability, T/C [5] 102% | viability, T/C [6] 78.4% | viability, T/C [7] 92.9% | viability, T/C [8] 90.8% | viability, T/C [9] 93.9% | viability, T/C [10] 108% | viability, T/C [11] 99.2% | viability, T/C [12] 72% | viability, T/C [13] 104% | viability, T/C [14] 107% | viability, T/C [15] 105% | viability, T/C [16] 88.1% | viability, T/C [17] 85.8% | viability, T/C [18] 42.1% | viability, T/C [19] 103% | viability, T/C [20] 88.5% | viability, T/C [21] 102% | viability, T/C [22] 91.2% | viability, T/C [23] 62.8% | viability, T/C [24] 15.7% | viability, T/C [25] 77.8% | viability, T/C [26] 65.8% | viability, T/C [27] 54.9% | viability, T/C [28] 33.3% | viability, T/C [29] 12.9% | viability, T/C [31] 18.7% | viability, T/C [32] 18.9% | viability, T/C [33] 14.2%
> 10 µM: IC50 (second compound 0.0316 µM) | IC50 (second compound 0.1 µM)
active: viability, T/C [30] 6% | viability, T/C [34] 4.89% | viability, T/C [35] 5.43% | viability, T/C [36] 0.25%
0.382 µM: IC50 (second compound 3.16 µM)

CNC(=O)c1ccc(N2C(=S)N(c3ccc(C#N)c(C(F)(F)F)c3)C(=O)C2(C)C)cc1F + CC(Nc1ncnc2nc[nH]c12)c1cc2cccc(Cl)c2c(=O)n1-c1ccccc1
inactive: viability, T/C [1] 100% | viability, T/C [2] 117% | viability, T/C [3] 90.9% | viability, T/C [4] 90.1% | viability, T/C [5] 101% | viability, T/C [6] 92% | viability, T/C [7] 99.7% | viability, T/C [8] 107% | viability, T/C [9] 88.6% | viability, T/C [10] 115% | viability, T/C [11] 115% | viability, T/C [12] 99.8% | viability, T/C [13] 104% | viability, T/C [14] 119% | viability, T/C [15] 102% | viability, T/C [16] 104% | viability, T/C [17] 112% | viability, T/C [18] 113% | viability, T/C [19] 89.3% | viability, T/C [20] 112% | viability, T/C [21] 117% | viability, T/C [22] 116% | viability, T/C [23] 106% | viability, T/C [24] 103% | viability, T/C [25] 116% | viability, T/C [26] 128% | viability, T/C [27] 103% | viability, T/C [28] 106% | viability, T/C [29] 118% | viability, T/C [30] 92.9% | viability, T/C [31] 90.5% | viability, T/C [32] 102% | viability, T/C [33] 103% | viability, T/C [34] 96.6% | viability, T/C [35] 92.1% | viability, T/C [36] 89.4%
> 10 µM: IC50 (second compound 0.0316 µM) | IC50 (second compound 0.1 µM) | IC50 (second compound 0.316 µM) | IC50 (second compound 1 µM) | IC50 (second compound 3.16 µM) | IC50 (second compound 10 µM)

Cn1cnc2c(F)c(Nc3ccc(Br)cc3Cl)c(C(=O)NOCCO)cc21 + COc1c(OCCCN2CCOCC2)ccc2c3n(c(=NC(=O)c4cnc(N)nc4)nc12)CCN3
inactive: viability, T/C (second compound 0.00316 µM, first compound 0.00949 µM) 91.7% | viability, T/C (second compound 0.00316 µM, first compound 0.03 µM) 74.6% | viability, T/C (second compound 0.00316 µM, first compound 0.0949 µM) 38.3% | viability, T/C (second compound 0.00316 µM, first compound 0.3 µM) 28.9% | viability, T/C (second compound 0.00316 µM, first compound 0.949 µM) 13.1% | viability, T/C (second compound 0.01 µM, first compound 0.00949 µM) 81.6% | viability, T/C (second compound 0.01 µM, first compound 0.03 µM) 50% | viability, T/C (second compound 0.01 µM, first compound 0.0949 µM) 24.9% | viability, T/C (second compound 0.01 µM, first compound 0.3 µM) 11.7% | viability, T/C (second compound 0.0316 µM, first compound 0.00949 µM) 28.9% | viability, T/C (second compound 0.0316 µM, first compound 0.03 µM) 20.9% | viability, T/C (second compound 0.0316 µM, first compound 0.0949 µM) 13.5% | viability, T/C (second compound 0.1 µM, first compound 0.00949 µM) 14.6%
0.0299 µM: IC50 (second compound 0.01 µM)
< 0.00949 µM: IC50 (second compound 0.0316 µM) | IC50 (second compound 0.1 µM) | IC50 (second compound 0.316 µM) | IC50 (second compound 1 µM)
active: viability, T/C (second compound 0.00316 µM, first compound 3 µM) 7.3% | viability, T/C (second compound 0.01 µM, first compound 0.949 µM) 8.98% | viability, T/C (second compound 0.01 µM, first compound 3 µM) 5.03% | viability, T/C (second compound 0.0316 µM, first compound 0.3 µM) 8.43% | viability, T/C (second compound 0.0316 µM, first compound 0.949 µM) 3.94% | viability, T/C (second compound 0.0316 µM, first compound 3 µM) 2.23% | viability, T/C (second compound 0.1 µM, first compound 0.03 µM) 7.23% | viability, T/C (second compound 0.1 µM, first compound 0.0949 µM) 5.32% | viability, T/C (second compound 0.1 µM, first compound 0.3 µM) 2.22% | viability, T/C (second compound 0.1 µM, first compound 0.949 µM) 0.6% | viability, T/C (second compound 0.1 µM, first compound 3 µM) 0.24% | viability, T/C (second compound 0.316 µM, first compound 0.00949 µM) 2.44% | viability, T/C (second compound 0.316 µM, first compound 0.03 µM) 1.09% | viability, T/C (second compound 0.316 µM, first compound 0.0949 µM) 1.66% | viability, T/C (second compound 0.316 µM, first compound 0.3 µM) 0.37% | viability, T/C (second compound 0.316 µM, first compound 0.949 µM) 0.45% | viability, T/C (second compound 0.316 µM, first compound 3 µM) 0.11% | viability, T/C (second compound 1 µM, first compound 0.00949 µM) 0.41% | viability, T/C (second compound 1 µM, first compound 0.03 µM) 0.28% | viability, T/C (second compound 1 µM, first compound 0.0949 µM) 0.32% | viability, T/C (second compound 1 µM, first compound 0.3 µM) 0.14% | viability, T/C (second compound 1 µM, first compound 0.949 µM) 0.15% | viability, T/C (second compound 1 µM, first compound 3 µM) 0.18%
0.0739 µM: IC50 (second compound 0.00316 µM)
